Key:
[1] = target: Histone deacetylase 5 (Homo sapiens, UniProt Q9UQL6); test: Inhibition of human HDAC5 using Boc-Lys (tri-fluoroacetyl)-AMC as substrate incubated for 1 hr followed by substrate addition and further incubated for 2 hrs by fluorescence assay
[2] = target: T1, Histone deacetylase 11 (Homo sapiens, UniProt Q96DB2); test: Inhibition of human HDAC11 using Boc-Lys (tri-fluoroacetyl)-AMC as substrate incubated for 1 hr followed by substrate addition and further incubated for 2 hrs by fluorescence assay
T1 sequence (Q96DB2 whole entry): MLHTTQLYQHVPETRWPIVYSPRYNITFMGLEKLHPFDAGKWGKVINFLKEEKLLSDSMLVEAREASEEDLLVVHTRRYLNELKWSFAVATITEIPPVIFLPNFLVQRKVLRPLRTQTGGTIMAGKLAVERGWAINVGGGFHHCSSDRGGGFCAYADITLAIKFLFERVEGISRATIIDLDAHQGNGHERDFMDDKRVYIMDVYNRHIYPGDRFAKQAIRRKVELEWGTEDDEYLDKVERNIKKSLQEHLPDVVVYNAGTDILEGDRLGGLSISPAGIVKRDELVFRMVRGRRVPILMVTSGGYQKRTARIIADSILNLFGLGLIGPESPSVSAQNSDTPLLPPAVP

[3] = target: Histone deacetylase 3 (Homo sapiens, UniProt O15379); test: Inhibition of human HDAC3 using Boc-Lys (acetyl)-AMC as substrate incubated for 1 hr followed by substrate addition and further incubated for 2 hrs by fluorescence assay
Chain of Histone deacetylase 3 (O15379 whole entry): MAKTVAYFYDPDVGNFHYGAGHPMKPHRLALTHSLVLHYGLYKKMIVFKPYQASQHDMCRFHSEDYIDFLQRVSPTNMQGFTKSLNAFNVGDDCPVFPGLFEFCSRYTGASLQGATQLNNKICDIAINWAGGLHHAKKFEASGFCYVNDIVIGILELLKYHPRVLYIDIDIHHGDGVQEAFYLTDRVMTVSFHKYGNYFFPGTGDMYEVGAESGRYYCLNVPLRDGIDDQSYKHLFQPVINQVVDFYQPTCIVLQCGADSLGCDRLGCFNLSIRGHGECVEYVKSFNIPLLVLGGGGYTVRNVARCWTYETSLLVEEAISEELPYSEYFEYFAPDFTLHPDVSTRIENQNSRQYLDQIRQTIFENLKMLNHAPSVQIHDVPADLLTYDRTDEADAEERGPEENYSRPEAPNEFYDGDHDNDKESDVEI

[4] = Stability of compound in human plasma at […] measured after 24 hrs by HPLC analysis; format: ADME, cell-free
[5] = target: Aminopeptidase N (Homo sapiens, UniProt P15144); test: Inhibition of human CD13 using L-leucine-p-nitroanilide as substrate incubated for 30 mins by microplate reader analysis
Chain of Aminopeptidase N (P15144 whole entry): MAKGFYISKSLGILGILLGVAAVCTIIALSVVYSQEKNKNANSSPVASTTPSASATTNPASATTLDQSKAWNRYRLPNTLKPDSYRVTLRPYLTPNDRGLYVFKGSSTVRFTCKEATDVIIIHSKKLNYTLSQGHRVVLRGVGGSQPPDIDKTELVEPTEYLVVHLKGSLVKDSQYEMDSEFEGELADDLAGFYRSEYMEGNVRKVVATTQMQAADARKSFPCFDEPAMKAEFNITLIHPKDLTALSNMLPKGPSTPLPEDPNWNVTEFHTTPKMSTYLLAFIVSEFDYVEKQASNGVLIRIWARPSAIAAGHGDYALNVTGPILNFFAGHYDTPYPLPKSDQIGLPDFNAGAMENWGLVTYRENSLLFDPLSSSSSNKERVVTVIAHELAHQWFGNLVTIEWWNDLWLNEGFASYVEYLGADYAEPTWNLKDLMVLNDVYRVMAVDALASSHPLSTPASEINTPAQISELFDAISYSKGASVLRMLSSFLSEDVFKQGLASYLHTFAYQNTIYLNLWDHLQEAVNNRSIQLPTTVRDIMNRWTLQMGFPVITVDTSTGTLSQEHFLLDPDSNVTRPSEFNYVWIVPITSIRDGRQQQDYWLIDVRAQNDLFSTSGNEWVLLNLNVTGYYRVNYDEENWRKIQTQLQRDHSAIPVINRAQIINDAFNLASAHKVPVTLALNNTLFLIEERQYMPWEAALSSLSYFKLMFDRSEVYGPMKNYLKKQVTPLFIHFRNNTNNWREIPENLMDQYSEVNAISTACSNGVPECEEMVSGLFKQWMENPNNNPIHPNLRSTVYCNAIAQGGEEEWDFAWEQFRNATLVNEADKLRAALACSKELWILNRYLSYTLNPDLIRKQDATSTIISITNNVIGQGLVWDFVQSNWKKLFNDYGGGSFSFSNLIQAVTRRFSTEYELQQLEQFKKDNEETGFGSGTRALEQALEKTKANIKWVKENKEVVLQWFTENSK

[6] = Stability of compound in artificial intestinal juice at 0.4 mg/mL measured after 24 hrs by HPLC analysis; format: ADME; details: simulated gi fluid
[7] = target: T2, Histone deacetylase 8 (Homo sapiens, UniProt Q9BY41); test: Inhibition of human HDAC8 using Boc-Lys (tri-fluoroacetyl)-AMC as substrate incubated for 1 hr followed by substrate addition and further incubated for 2 hrs by fluorescence assay
T2 sequence (Q9BY41 whole entry): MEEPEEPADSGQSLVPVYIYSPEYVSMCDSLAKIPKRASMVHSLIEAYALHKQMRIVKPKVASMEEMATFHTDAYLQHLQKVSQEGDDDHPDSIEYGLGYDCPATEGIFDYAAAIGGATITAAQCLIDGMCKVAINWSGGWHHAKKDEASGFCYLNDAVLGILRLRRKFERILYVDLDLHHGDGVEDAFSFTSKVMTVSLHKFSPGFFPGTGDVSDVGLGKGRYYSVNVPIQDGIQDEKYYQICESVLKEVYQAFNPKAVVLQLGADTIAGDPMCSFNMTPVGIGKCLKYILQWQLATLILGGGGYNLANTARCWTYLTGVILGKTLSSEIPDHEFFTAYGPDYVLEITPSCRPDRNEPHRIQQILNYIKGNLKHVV

[8] = Stability of compound in artificial gastric juice at 0.4 mg/mL measured after 24 hrs by HPLC analysis; format: ADME; details: simulated gi fluid
[9] = target: Histone deacetylase 4 (Homo sapiens, UniProt P56524); test: Inhibition of human HDAC4 using Boc-Lys (tri-fluoroacetyl)-AMC as substrate incubated for 1 hr followed by substrate addition and further incubated for 2 hrs by fluorescence assay
Chain of Histone deacetylase 4 (P56524 whole entry): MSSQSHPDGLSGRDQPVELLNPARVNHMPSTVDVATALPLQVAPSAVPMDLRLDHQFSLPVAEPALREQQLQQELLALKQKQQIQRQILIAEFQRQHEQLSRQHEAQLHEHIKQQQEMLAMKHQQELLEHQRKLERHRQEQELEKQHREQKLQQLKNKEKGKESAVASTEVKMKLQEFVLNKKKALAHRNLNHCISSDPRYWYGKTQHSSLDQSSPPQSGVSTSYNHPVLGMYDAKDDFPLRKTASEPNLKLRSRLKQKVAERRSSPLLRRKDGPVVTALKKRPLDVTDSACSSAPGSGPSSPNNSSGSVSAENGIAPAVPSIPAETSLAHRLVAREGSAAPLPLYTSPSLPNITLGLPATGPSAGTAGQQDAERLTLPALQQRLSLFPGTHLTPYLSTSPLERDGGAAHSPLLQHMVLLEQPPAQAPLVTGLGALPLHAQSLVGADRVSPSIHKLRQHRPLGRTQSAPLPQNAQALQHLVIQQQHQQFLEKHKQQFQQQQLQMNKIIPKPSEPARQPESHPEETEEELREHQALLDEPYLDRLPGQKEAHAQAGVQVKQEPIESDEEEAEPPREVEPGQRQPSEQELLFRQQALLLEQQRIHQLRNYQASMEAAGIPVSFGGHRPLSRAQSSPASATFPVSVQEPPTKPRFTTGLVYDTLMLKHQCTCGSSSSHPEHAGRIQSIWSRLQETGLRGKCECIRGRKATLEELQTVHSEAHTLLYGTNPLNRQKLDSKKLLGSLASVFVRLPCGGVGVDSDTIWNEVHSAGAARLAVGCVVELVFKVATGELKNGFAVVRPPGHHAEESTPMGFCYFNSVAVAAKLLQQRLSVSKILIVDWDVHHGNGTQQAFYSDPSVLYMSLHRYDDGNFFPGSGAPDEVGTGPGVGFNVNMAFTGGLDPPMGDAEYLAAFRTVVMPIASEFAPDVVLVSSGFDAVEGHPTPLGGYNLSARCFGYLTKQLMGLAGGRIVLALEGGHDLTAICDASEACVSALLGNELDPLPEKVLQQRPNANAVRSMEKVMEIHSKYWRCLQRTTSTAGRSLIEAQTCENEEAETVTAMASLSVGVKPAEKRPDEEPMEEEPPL

[10] = target: Histone deacetylase 9 (Homo sapiens, UniProt Q9UKV0); test: Inhibition of human HDAC9 using Boc-Lys (tri-fluoroacetyl)-AMC as substrate incubated for 1 hr followed by substrate addition and further incubated for 2 hrs by fluorescence assay
Chain of Histone deacetylase 9 (Q9UKV0 whole entry): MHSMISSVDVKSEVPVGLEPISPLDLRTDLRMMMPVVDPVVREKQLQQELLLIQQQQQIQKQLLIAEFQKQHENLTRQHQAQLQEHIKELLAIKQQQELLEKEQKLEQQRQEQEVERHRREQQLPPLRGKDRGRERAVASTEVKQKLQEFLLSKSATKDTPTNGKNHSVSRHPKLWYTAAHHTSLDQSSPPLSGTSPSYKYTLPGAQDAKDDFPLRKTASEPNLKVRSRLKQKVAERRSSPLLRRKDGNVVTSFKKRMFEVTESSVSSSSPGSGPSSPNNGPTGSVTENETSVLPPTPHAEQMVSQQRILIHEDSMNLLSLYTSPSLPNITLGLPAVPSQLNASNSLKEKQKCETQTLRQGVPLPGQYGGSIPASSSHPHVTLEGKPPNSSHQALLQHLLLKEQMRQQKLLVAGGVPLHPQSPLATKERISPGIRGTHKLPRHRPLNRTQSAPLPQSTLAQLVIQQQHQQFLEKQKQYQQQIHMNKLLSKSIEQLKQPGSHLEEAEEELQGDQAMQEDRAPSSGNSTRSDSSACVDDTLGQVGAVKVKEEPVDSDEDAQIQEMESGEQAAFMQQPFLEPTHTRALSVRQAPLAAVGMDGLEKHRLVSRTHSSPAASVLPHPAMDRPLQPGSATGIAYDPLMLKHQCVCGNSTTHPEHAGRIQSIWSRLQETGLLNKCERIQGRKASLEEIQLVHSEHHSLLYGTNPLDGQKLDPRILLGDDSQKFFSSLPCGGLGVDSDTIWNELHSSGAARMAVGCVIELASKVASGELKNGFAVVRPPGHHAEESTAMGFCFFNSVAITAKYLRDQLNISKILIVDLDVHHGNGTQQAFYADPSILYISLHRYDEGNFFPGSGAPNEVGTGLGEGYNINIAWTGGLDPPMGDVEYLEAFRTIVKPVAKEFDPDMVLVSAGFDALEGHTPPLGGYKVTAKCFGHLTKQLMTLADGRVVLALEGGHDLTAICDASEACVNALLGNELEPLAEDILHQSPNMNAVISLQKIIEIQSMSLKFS

[11] = target: T3, Histone deacetylase 7 (Homo sapiens, UniProt Q8WUI4); test: Inhibition of human HDAC7 using Boc-Lys (tri-fluoroacetyl)-AMC as substrate incubated for 1 hr followed by substrate addition and further incubated for 2 hrs by fluorescence assay
T3 sequence (Q8WUI4 whole entry): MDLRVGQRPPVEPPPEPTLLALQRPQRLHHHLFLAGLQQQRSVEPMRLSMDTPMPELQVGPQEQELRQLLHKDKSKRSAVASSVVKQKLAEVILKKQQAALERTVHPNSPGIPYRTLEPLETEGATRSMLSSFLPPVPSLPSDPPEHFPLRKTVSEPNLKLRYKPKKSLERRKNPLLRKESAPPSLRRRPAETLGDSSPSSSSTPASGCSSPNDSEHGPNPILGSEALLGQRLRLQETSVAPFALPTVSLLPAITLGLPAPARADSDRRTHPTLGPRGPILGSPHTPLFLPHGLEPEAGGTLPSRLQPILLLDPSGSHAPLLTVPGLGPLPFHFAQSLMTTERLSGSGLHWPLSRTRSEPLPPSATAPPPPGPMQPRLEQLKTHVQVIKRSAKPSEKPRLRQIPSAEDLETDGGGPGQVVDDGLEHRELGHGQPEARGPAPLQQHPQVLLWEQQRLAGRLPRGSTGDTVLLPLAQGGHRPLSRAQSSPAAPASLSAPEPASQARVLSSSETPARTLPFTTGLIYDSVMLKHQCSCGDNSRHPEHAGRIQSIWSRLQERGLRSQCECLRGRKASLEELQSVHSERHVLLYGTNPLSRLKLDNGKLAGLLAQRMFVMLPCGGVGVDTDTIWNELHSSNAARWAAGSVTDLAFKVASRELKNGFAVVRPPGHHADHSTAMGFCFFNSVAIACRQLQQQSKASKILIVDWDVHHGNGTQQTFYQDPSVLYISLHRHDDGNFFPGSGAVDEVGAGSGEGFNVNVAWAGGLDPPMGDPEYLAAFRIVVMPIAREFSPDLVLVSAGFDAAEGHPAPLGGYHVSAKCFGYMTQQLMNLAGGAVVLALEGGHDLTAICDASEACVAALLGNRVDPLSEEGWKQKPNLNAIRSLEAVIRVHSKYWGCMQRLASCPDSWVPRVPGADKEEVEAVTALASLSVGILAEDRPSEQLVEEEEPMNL

Chain of Histone deacetylase 5 (Q9UQL6 whole entry): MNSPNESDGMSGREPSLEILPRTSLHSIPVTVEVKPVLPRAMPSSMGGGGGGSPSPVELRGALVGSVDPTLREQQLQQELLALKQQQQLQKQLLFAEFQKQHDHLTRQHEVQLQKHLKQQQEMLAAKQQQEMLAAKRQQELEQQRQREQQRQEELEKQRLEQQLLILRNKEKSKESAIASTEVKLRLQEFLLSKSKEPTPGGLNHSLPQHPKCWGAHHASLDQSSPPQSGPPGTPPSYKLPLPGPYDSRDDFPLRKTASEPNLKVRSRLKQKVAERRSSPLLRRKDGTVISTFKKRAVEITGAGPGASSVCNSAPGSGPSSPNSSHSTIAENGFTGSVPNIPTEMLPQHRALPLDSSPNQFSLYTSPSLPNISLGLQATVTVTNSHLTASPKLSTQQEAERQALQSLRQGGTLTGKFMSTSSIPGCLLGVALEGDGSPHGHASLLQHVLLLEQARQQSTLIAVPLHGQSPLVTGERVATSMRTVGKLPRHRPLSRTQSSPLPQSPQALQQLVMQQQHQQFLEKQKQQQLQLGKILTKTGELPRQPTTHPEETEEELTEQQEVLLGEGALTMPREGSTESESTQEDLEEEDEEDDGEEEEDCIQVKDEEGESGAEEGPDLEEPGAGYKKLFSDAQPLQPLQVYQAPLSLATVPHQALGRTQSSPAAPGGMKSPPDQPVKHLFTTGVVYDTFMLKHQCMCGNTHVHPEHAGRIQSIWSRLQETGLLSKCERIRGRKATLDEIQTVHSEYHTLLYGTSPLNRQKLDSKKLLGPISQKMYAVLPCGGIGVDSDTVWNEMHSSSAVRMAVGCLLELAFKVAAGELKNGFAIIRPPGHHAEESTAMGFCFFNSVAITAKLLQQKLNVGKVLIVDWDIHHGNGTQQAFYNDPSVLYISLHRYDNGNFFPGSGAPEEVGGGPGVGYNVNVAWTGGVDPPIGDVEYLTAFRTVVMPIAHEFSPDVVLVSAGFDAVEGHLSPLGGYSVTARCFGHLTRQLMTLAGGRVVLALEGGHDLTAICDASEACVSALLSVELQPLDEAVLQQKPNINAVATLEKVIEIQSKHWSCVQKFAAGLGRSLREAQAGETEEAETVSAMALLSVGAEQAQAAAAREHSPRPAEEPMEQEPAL

IC50 [1]: > 10 µM
IC50 [2]: 1.24 µM
IC50 [3]: 0.02 µM
Stability [4]: Stable
IC50 [5]: 0.34 µM
Stability [6]: Stable
IC50 [7]: 4.65 µM
Stability [8]: Stable
IC50 [9]: > 10 µM
IC50 [10]: > 10 µM
IC50 [11]: > 10 µM
Compound: CCCNNC(=O)c1ccc(CNC(=O)[C@H](CC(C)C)NC(=O)[C@@H](O)[C@H](N)Cc2ccccc2)cc1.Cl
